Where only a bound is given, the exact number is not on record here.

In patent US7579356B2, “Thia-tetraazaacenaphthylene kinase inhibitors” (Janssen Pharmaceutica NV, priority 2005, dated 2009) one finds IC50 and inhibition data, which are given here for 21 compounds.

The target in one assay is T1, EGFR (Homo sapiens, UniProt P00533).
T1 construct: The intracellular portion of EGFR started at nucleotide 2189 (corresponding to amino acid 667) and ended at the termination codon; made in house; host or cells: Sf9 insect cells (baculovirus)
The assay can be described thus: EGFR Kinase Assay. The class given is biochemical. Conditions: for IC50: GST-EGFR, ATP 5 μM; for inhibition at 2 µM: test concentration of 2 μM, compounds without an IC50, read-out: EGFR inhibition in percent. Summed up:
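Potency came from triplicate 16-point half-log titrations starting at 200 uM, with IC50 fitted from % inhibition against log concentration, or % inhibition at 2 μM otherwise. Reaction: Sf9-made GST–EGFR cytoplasmic region (aa 667 onward), biotin-polyGluTyr, 5 μM ATP with 33P tracer, pH 8.0 Tris/Mg/vanadate/DTT, 30 °C for 1 h; captured on streptavidin Flashplates and counted.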

In another assay the target is T2, HER-2 (Homo sapiens, UniProt P04626).
T2 construct: His6 with thrombin site (N); purchased Proqinase (Freiburg, Germany)
Briefly: HER-2 Kinase Assay. The class given is biochemical. Particulars: for IC50: value in parentheses; for inhibition at 1 µM: test concentration of 1 μM. In a few lines: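 Read-out was scintillation counting of 33P incorporated into biotinylated polyGluTyr captured on streptavidin plates. Reactions ran 1 h at 30 °C with GST-fused HER-2 residues 679–1255, 1 μM ATP, Mn2+ and Mg2+ at pH 7.5; data given as percent inhibition at 1 μM, with IC50 where determined.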

Usually IC50 stands for the concentration that inhibits the measured activity by half. Consider `O=C(Nc1ccc(CN2CCOCC2)cc1)c1sc2ncnc3c2c1NC(=O)N3c1ccc(Cl)cc1Cl` [Cpd 29, 5-(2,4-dichloro-phenyl)-4-oxo-4,5-dihydro-3H-1-thia-3,5,6,8-tetraaza-acenaphthylene-2-carboxylic acid (4-morpholin-4-ylmethyl-phenyl)-amide], for which the IC50 against EGFR is 0.873 µM; on HER-2, 0.884 µM.

Take `COc1cc(NC(=O)c2sc3ncnc4c3c2NC(=O)N4c2ccc(OCc3cccs3)c(Cl)c2)ccc1CN1CCCCC1` [Cpd 228, 5-[3-chloro-4-(thiophen-2-ylmethoxy)-phenyl]-4-oxo-4,5-dihydro-3H-1-thia-3,5,6,8-tetraaza-acenaphthylene-2-carboxylic acid (3-methoxy-4-piperidin-1-ylmethyl-phenyl)-amide]: the concentration for half-maximal inhibition (IC50) is 0.017 µM against EGFR and 0.033 µM on HER-2.

For the compound `O=C(Nc1ccc(CN2CCCCC2)cc1)c1sc2ncnc3c2c1NC(=O)N3c1ccc(Oc2ccccc2)c(Br)c1` [Cpd 188, 5-(3-bromo-4-phenoxy-phenyl)-4-oxo-4,5-dihydro-3H-1-thia-3,5,6,8-tetraaza-acenaphthylene-2-carboxylic acid (4-piperidin-1-ylmethyl-phenyl)-amide], the IC50 against EGFR is 0.049 µM; at HER-2, 0.083 µM.

The term inhibition denotes the change of the read-out against control, counted positive when it falls. Take `O=C(Nc1ccc(CN2CCOCC2)cc1)c1sc2ncnc3c2c1NC(=O)N3c1ccc(F)c(Cl)c1` [Cpd 13, 5-(3-chloro-4-fluoro-phenyl)-4-oxo-4,5-dihydro-3H-1-thia-3,5,6,8-tetraaza-acenaphthylene-2-carboxylic acid (4-morpholin-1-ylmethyl-phenyl)-amide]: the IC50 against EGFR is 0.041 µM. On HER-2, the inhibition at 1 µM was 40% and the half-inhibitory concentration (IC50) was determined as 0.804 µM.

As to `COc1cc(N2C(=O)Nc3c(C(=O)Nc4ccc(CN5CCCCC5)cc4)sc4ncnc2c34)ccc1Br` [Cpd 81, 5-(4-bromo-3-methoxy-phenyl)-4-oxo-4,5-dihydro-3H-1-thia-3,5,6,8-tetraaza-acenaphthylene-2-carboxylic acid (4-piperidin-1-ylmethyl-phenyl)-amide], the IC50 came out at 0.498 µM against EGFR and 0.695 µM on HER-2.

In the case of `O=C(Nc1ccc(CN2CCCCC2)cc1)c1sc2ncnc3c2c1NC(=O)N3c1ccc(Br)cc1` [Cpd 195, 5-(4-bromo-phenyl)-4-oxo-4,5-dihydro-3H-1-thia-3,5,6,8-tetraaza-acenaphthylene-2-carboxylic acid (4-piperidin-1-ylmethyl-phenyl)-amide], the IC50 against EGFR stood at 0.097 µM; on HER-2, 0.094 µM.

On EGFR, `C#Cc1cccc(N2C(=O)Nc3c(C(=O)Nc4ccc(CN5CCCC5)cc4)sc4ncnc2c34)c1` [Cpd 15, 5-(3-ethynyl-phenyl)-4-oxo-4,5-dihydro-3H-1-thia-3,5,6,8-tetraaza-acenaphthylene-2-carboxylic acid (4-pyrrolidin-1-ylmethyl-phenyl)-amide] gave an IC50 of 0.026 µM. At HER-2, the inhibition at 1 µM came out at 21%.

As for `CN1CCN(NC(=O)c2sc3ncnc4c3c2NC(=O)N4c2ccc(Oc3ccccc3)cc2)CC1` [Cpd 215, 4-oxo-5-(4-phenoxy-phenyl)-4,5-dihydro-3H-1-thia-3,5,6,8-tetraaza-acenaphthylene-2-carboxylic acid (4-methyl-piperazin-1-yl)-amide], the IC50 was 0.121 µM against EGFR and 4.46 µM at HER-2.

Regarding “4-oxo-5-(4-phenoxy-phenyl)-4,5-dihydro-3H-1-thia-3,5,6,8-tetraaza-acenaphthylene-2-carboxylic acid (4-morpholin-4-ylmethyl-3-trifluoromethoxy-phenyl)-amide [Cpd 240]”, the IC50 against EGFR came to 0.031 µM; at HER-2 it was 0.227 µM.

In the case of `CCOC(=O)c1sc2ncnc3c2c1NC(=O)N3c1ccc(Sc2ccccc2)cc1` [Cpd 210, 4-oxo-5-(4-phenylsulfanyl-phenyl)-4,5-dihydro-3H-1-thia-3,5,6,8-tetraaza-acenaphthylene-2-carboxylic acid ethyl ester], the IC50 against EGFR is 0.615 µM; at HER-2 it was > 10 µM.

Take `O=C(Nc1ccc(CN2CCOCC2)cc1)c1sc2ncnc3c2c1NC(=O)N3c1ccc(Oc2ccccc2)c(Br)c1` [Cpd 187, 5-(3-bromo-4-phenoxy-phenyl)-4-oxo-4,5-dihydro-3H-1-thia-3,5,6,8-tetraaza-acenaphthylene-2-carboxylic acid (4-morpholin-4-ylmethyl-phenyl)-amide]: the IC50 against EGFR came out at 0.121 µM; at HER-2, 0.248 µM.

Take `O=C(Nc1ccc(CN2CCCCC2)cc1)c1sc2ncnc3c2c1NC(=O)N3c1cccc(Oc2ccccc2)c1` [Cpd 197, 4-oxo-5-(3-phenoxy-phenyl)-4,5-dihydro-3H-1-thia-3,5,6,8-tetraaza-acenaphthylene-2-carboxylic acid (4-piperidin-1-ylmethyl-phenyl)-amide]: the IC50 against EGFR was found to be 0.039 µM; on HER-2, 0.175 µM.

Consider `O=C(c1sc2ncnc3c2c1NC(=O)N3c1ccc(Oc2ccccc2)cc1)N1CCN(CCN2CCOCC2)CC1` [Cpd 213, 2-[4-(2-morpholin-4-yl-ethyl)-piperazine-1-carbonyl]-5-(4-phenoxy-phenyl)-3H,5H-1-thia-3,5,6,8-tetraaza-acenaphthylen-4-one], for which the inhibition at 2 µM at EGFR amounted to 48%. The IC50 at HER-2 is > 10 µM.

On to `COc1cc(NC(=O)c2sc3ncnc4c3c2NC(=O)N4c2ccc(OCc3ccco3)c(Cl)c2)ccc1CN1CCCCC1` [Cpd 243, 5-[3-chloro-4-(furan-2-ylmethoxy)-phenyl]-4-oxo-4,5-dihydro-3H-1-thia-3,5,6,8-tetraaza-acenaphthylene-2-carboxylic acid (3-methoxy-4-piperidin-1-ylmethyl-phenyl)-amide], for which the IC50 at EGFR was found to be 0.016 µM; at HER-2, 0.083 µM.

For `CN1CCC(NC(=O)c2sc3ncnc4c3c2NC(=O)N4c2ccc3nc(Cc4cccc(F)c4)[nH]c3c2)CC1` [Cpd 194, 5-[2-(3-fluoro-benzyl)-3H-benzoimidazol-5-yl]-4-oxo-4,5-dihydro-3H-1-thia-3,5,6,8-tetraaza-acenaphthylene-2-carboxylic acid (1-methyl-piperidin-4-yl)-amide], on EGFR, the inhibition at 2 µM turned out to be 31%. For the same compound, the concentration for half-maximal inhibition (IC50) at HER-2 is 5.77 µM.

Turning to `CN1CCN(Cc2ccc(NC(=O)c3sc4ncnc5c4c3NC(=O)N5c3ccc(Sc4ccccc4)cc3)cc2)CC1` [Cpd 218, 4-oxo-5-(4-phenylsulfanyl-phenyl)-4,5-dihydro-3H-1-thia-3,5,6,8-tetraaza-acenaphthylene-2-carboxylic acid [4-(4-methyl-piperazin-1-ylmethyl)-phenyl]-amide], the 50% inhibitory concentration (IC50) against EGFR stood at 0.014 µM; at HER-2, 0.073 µM.

As for `O=C(Nc1ccc(CN2CCCC(CO)C2)cc1)c1sc2ncnc3c2c1NC(=O)N3c1ccc(Oc2ccccc2)cc1` (stereo not shown) [Cpd 256, 4-oxo-5-(4-phenoxy-phenyl)-4,5-dihydro-3H-1-thia-3,5,6,8-tetraaza-acenaphthylene-2-carboxylic acid [4-(3-hydroxymethyl-piperidin-1-ylmethyl)-phenyl]-amide], the IC50 on EGFR came to 0.321 µM; on HER-2, 0.45 µM.

On to `O=C(Nc1ccc(CN2CCOCC2)cc1)c1sc2ncnc3c2c1NC(=O)N3c1ccc(Oc2cccnc2)cc1` [Cpd 237, 4-oxo-5-[4-(pyridin-3-yloxy)-phenyl]-4,5-dihydro-3H-1-thia-3,5,6,8-tetraaza-acenaphthylene-2-carboxylic acid (4-morpholin-4-ylmethyl-phenyl)-amide], for which the IC50 against EGFR stood at 0.09 µM; at HER-2 it was 0.454 µM.

As to `CN1CCN(Cc2ccc(NC(=O)c3sc4ncnc5c4c3NC(=O)N5c3ccc(F)c(Cl)c3)cc2)CC1` [Cpd 14, 5-(3-chloro-4-fluoro-phenyl)-4-oxo-4,5-dihydro-3H-1-thia-3,5,6,8-tetraaza-acenaphthylene-2-carboxylic acid [4-(4-methyl-piperazin-1-ylmethyl)-phenyl]-amide], half-maximal inhibition at EGFR (IC50) was put at 0.043 µM. Moreover, on HER-2, the inhibition at 1 µM is -1%.

`O=C(Nc1ccc(CN2CCCCC2)cc1)c1sc2ncnc3c2c1NC(=O)N3c1ccc(Oc2cccnc2)cc1` [Cpd 238, 4-oxo-5-[4-(pyridin-3-yloxy)-phenyl]-4,5-dihydro-3H-1-thia-3,5,6,8-tetraaza-acenaphthylene-2-carboxylic acid (4-piperidin-1-ylmethyl-phenyl)-amide]: the figures for the IC50 at EGFR and on HER-2 were 0.132 µM and 1.05 µM, respectively.

For the compound `O=C(Nc1ccc(CN2CCOCC2)cc1)c1sc2ncnc3c2c1NC(=O)N3c1ccc2nc(Cc3cccc(F)c3)[nH]c2c1` [Cpd 193, 5-[2-(3-fluoro-benzyl)-3H-benzoimidazol-5-yl]-4-oxo-4,5-dihydro-3H-1-thia-3,5,6,8-tetraaza-acenaphthylene-2-carboxylic acid (4-morpholin-4-ylmethyl-phenyl)-amide], the IC50 against EGFR is 0.704 µM; at HER-2 it was > 1 µM.
